What was measured:
[1] = target: T1, hP2X2/3H (Homo sapiens, UniProt P56373+Q9UBL9); assay: Calcium uptake assay (Ca influx), P2X antagonist assay, P2X2/3 heteromer; format: cell-based; conditions: inhibition of agonist-induced calcium influx
T1 construct: expressed in transfected cells
T1 sequence (P56373 1-397): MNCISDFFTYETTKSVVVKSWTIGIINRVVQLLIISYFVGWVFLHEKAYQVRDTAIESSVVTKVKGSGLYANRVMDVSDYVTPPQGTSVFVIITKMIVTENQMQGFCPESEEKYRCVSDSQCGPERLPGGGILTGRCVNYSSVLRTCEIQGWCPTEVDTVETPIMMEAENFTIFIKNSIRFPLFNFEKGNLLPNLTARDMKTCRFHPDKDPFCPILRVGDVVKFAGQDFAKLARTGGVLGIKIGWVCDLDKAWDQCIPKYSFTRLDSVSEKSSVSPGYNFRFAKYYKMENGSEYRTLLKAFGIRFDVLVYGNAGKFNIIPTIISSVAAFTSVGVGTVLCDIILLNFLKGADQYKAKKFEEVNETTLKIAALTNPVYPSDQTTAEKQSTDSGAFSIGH
T1 sequence (Q9UBL9 1-471): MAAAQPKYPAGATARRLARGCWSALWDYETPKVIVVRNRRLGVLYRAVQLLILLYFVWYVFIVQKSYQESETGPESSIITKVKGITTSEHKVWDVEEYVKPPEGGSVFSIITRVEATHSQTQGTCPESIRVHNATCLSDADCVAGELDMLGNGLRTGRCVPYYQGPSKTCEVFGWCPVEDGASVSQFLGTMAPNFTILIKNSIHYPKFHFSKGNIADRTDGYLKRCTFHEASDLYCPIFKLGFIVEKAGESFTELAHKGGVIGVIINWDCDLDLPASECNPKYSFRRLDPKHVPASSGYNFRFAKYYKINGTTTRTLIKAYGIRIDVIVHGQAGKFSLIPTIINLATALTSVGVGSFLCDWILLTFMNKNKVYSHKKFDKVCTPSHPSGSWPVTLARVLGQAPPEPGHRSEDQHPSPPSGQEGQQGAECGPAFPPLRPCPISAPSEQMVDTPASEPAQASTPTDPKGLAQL
Description: (§1) Human P2X3 (Accession no. NM_002559), P2X2 (Accession no. NM_170682) and Rat P2X3 (Accession no. NM_031075) and P2X2 (Accession no. NM_053656) are cloned into a mammalian expression vector (e.g., pcDNAS/TO or pcDNA3 Invitrogen). The human P2X2/3 chimera clone is created as described by Neelands et al, and then cloned into an expression vector as above. Receptors are expressed in cells (e.g., HEK293 or 1321N1 (obtained from the ECACC)) via transient transfection using standard lipid mediated transfection, or by creation of stable transfectants for each receptor. For expression of the P2X2/3 heteromeric receptor, the P2X3 expression vector is stably transfected into a cell line already stably expressing P2X2. P2X2/3 heteromer function is isolated using pharmacological methods. Cell lines are maintained in DMEM+5% Glutamax, the appropriate level of selective antibiotic, and 10% heat inactivated FBS.
(§2) Functional activity of compounds at the P2X receptor is determined by measuring their ability to inhibit agonist-induced calcium influx. Compounds are tested for antagonist activity against the P2X2/3 chimera, the P2X3 homomer, or the P2X2/3 heteromer. At the start of each screening day, the agonist EC50 is determined. Compound % inhibition or IC50s are subsequently determined using a predetermined agonist concentration (EC50-90 depending on cell line) as a stimulus. The agonists used are αβMeATP, ATP, or other ATP analogs. Compounds may be tested at concentrations ranging from 1 pM to 10 μM.
(§3) To test for antagonist activity, cells expressing the appropriate receptor are seeded onto 96 or 384 well plates 18-24 hours prior to assay. On the day of the assay, cells are loaded with calcium-sensitive fluorescent dye (e.g., Fluo-4 no wash reagent-Invitrogen cat#F36206, or the BD™ PBX Calcium Assay Kit-BD cat #640175) in Hank's Buffered Salt Solution (HBSS) with up to 10 mM supplemental CaCl2. Plates are incubated at 37° C. and then equilibrated at room temperature. Antagonism of agonist-induced calcium influx is measured using a fluorescent imaging plate reader (e.g. FLIPR^TETRA, Molecular Devices, Sunnyvale, Calif.). The assay comprises two stages: a pre-treatment phase followed by a treatment phase. Compounds may be tested as follows: For the pre-treatment phase, 50 μL of 3× concentration of test compound in HBSS is added to cells containing 100 μL of dye loading media to achieve a final concentration of 1× test compound. For the treatment phase, at a set interval after pre-treatment (1-30 minutes), 50 μL of 1× test compound plus 4× agonist solution is added, resulting in a final concentration of 1× compound and 1× agonist. Fluorescence is measured at 0.1-3 second intervals—with an excitation wavelength of 494 nm and an emission wavelength of 515 nm. Responses are measured as (peak fluorescence after agonist addition) minus (baseline fluorescence prior to treatment). Percent inhibition is calculated as follows:
(§4) [formula] IC50 values are determined by analyzing dose response data in a 4 parameter logistic fit using GraphPad Prizm.
(§5) The following compounds have been or can be prepared according to the synthetic methods described herein. A calcium uptake assay was performed as described above and the activity of each compound is expressed as follows: […]

[2] = target: T2, hP2X3 (Homo sapiens, UniProt P56373); assay: Calcium uptake assay (Ca influx), P2X antagonist assay, P2X3 homomer; format: cell-based; conditions: inhibition of agonist-induced calcium influx
T2 construct: expressed in transfected cells
T2 sequence (P56373 1-397): T1 sequence (P56373 1-397)
Description: as §1, §2, §3, §4, §5

Compound	IC50 [1]	IC50 [2]
Cc1ccc(-c2cc(C(=O)NCc3cnc(C)nc3)cc(N3CCCC3=O)c2)cc1 [Compound 50, 4′-Methyl-5-(2-oxo-pyrrolidin-1-yl)-biphenyl-3-carboxylic acid (2-methyl-pyrimidin-5-ylmethyl)-amide]	428 nM	25.9 nM
Cc1ccc(-c2cc(C(=O)N[C@@H](C)CO)cc(-c3ncccc3C(F)(F)F)c2)nc1 [Compound 81, N-((S)-2-Hydroxy-1-methyl-ethyl)-3-(5-methyl-pyridin-2-yl)-5-(3-trifluoromethyl-pyridin-2-yl)-benzamide]	1220 nM	48.7 nM
Cc1ccc(-c2cc(C(=O)N[C@H](C)c3cnc(C)nc3)cc(N3CCCCC3=O)c2)cc1 [Compound 39, (R)-4′-Methyl-N-(1-(2-methylpyrimidin-5-yl)ethyl)-5-(2-oxopiperidin-1-yl)biphenyl-3-carboxamide]	82 nM	38.8 nM
Cc1ccc(-c2cc(C(=O)NCc3ccc(C)nc3)cc(-c3ccccc3CO)c2)nc1 [Compound 13, 2′-Hydroxymethyl-5-(5-methyl-pyridin-2-yl)-biphenyl-3-carboxylic acid (6-methyl-pyridin-3-ylmethyl)-amide]	12.9 nM	9 nM
Cc1ccc(-c2cc(C(=O)N[C@@H](C)CO)cc(-c3cnccc3C#N)c2)c(C#N)c1 [Compound 86, 2′-Cyano-5-(4-cyano-pyridin-3-yl)-4′-methyl-biphenyl-3-carboxylic acid ((S)-2-hydroxy-1-methyl-ethyl)-amide]	28.1 nM	2.2 nM
Cc1ccc(-c2cc(C(=O)N[C@H](C)c3cnc(C)nc3)cc(N3CCCC3=O)c2)cc1 [Compound 48, 4′-Methyl-5-(2-oxo-pyrrolidin-1-yl)-biphenyl-3-carboxylic acid [(R)-1-(2-methyl-pyrimidin-5-yl)-ethyl]-amide]	33.2 nM	16.5 nM
Cc1ccc(-c2cc(C(=O)N[C@H](C)c3cnc(C)nc3)cc(N3CCCC3=O)c2)nc1 [Compound 58, (R)-3-(5-Methylpyridin-2-yl)-N-(1-(2-methylpyrimidin-5-yl)ethyl)-5-(2-oxopyrrolidin-1-yl)benzamide]	194 nM	35.3 nM
Cc1ccc(-c2cc(C(=O)N[C@@H](C)CO)cc(N3CCCC3=O)c2)cc1 [Compound 60, 4′-Methyl-5-(2-oxo-pyrrolidin-1-yl)-biphenyl-3-carboxylic acid ((S)-2-hydroxy-1-methyl-ethyl)-amide]	8680 nM	207 nM
Cc1ccc(-c2cc(C(=O)N[C@H](C)c3cnc(C)nc3)cc(-c3ccccc3C#N)c2)nc1 [Compound 31, 2′-Cyano-5-(5-methyl-pyridin-2-yl)-biphenyl-3-carboxylic acid [(R)-1-(2-methyl-pyrimidin-5-yl)-ethyl]-amide]	17.6 nM	14.2 nM
Cc1ccc(-c2cc(C(=O)N[C@H](C)c3cnc(C)nc3)cc(N3CCCCC3=O)c2)nc1 [Compound 56, 3-(5-Methyl-pyridin-2-yl)-N-[(R)-1-(2-methyl-pyrimidin-5-yl)-ethyl]-5-(2-oxo-piperidin-1-yl)-benzamide]	418 nM	95.9 nM

The remaining molecules from weak to strong by IC50 [1], led by results:

IC50 [1]	IC50 [2]	Compound
2350 nM	268 nM	Cc1ccc(-c2cc(C(=O)NCc3ccc(C)nc3)cc(N3CCNCC3=O)c2)cc1 [Compound 61, 4′-Methyl-5-(2-oxo-piperazin-1-yl)-biphenyl-3-carboxylic acid (6-methyl-pyridin-3-ylmethyl)-amide]
291 nM	292 nM	COc1ncc(-c2cc(C(=O)NCc3ccc(C)nc3)cc(-c3ccc(C)cc3)c2)cn1 [Compound 12, 5-(2-Methoxy-pyrimidin-5-yl)-4′-methyl-biphenyl-3-carboxylic acid (6-methyl-pyridin-3-ylmethyl)-amide]
240 nM	43.6 nM	Cc1ccc(-c2cc(C(=O)N[C@@H](C)CO)cc(-c3cc(C)ccc3C#N)c2)nc1 [Compound 71, 2′-Cyano-5′-methyl-5-(5-methyl-pyridin-2-yl)-biphenyl-3-carboxylic acid ((S)-2-hydroxy-1-methyl-ethyl)-amide]
205 nM	34.1 nM	Cc1ccc(-c2cc(C(=O)NCc3ccc(C)nc3)cc(N3CCCC3=O)c2)cc1 [Compound 49, 4′-Methyl-5-(2-oxo-pyrrolidin-1-yl)-biphenyl-3-carboxylic acid (6-methyl-pyridin-3-ylmethyl)-amide]
169 nM	23.8 nM	Cc1ccc(-c2cc(C(=O)NCc3ccc(C)nc3)cc(-c3cnc(N)cn3)c2)nc1 [Compound 41, 3-(5-Amino-pyrazin-2-yl)-5-(5-methyl-pyridin-2-yl)-N-(6-methyl-pyridin-3-ylmethyl)-benzamide]
142 nM	195 nM	Cc1ccc(-c2cc(C(=O)NCc3ccc(C)nc3)cc(-c3ccccc3C#N)c2)cc1 [Compound 27, 2″-Cyano-4-methyl-[1,1′;3′,1″]terphenyl-5′-carboxylic acid (6-methyl-pyridin-3-ylmethyl)-amide]
70.5 nM	38.5 nM	Cc1ccc(-c2cc(C(=O)NCc3ccc(C)nc3)cc(-c3cccnc3)c2)nc1 [Compound 20, 3-(5-Methyl-pyridin-2-yl)-N-(6-methyl-pyridin-3-ylmethyl)-5-pyridin-3-yl-benzamide]
52.7 nM	26.3 nM	Cc1ccc(-c2cc(C(=O)N[C@H](C)c3ccc(C)nc3)cc(N3CCCCC3=O)c2)cc1 [Compound 40, (R)-4′-Methyl-N-(1-(6-methylpyridin-3-yl)ethyl)-5-(2-oxopiperidin-1-yl)biphenyl-3-carboxamide]
47.4 nM	45.7 nM	Cc1ccc(-c2cc(C(=O)NCc3ccc(C)nc3)cc(N3CCC[C@@H]3CO)c2)cc1 [Compound 62, 5-((R)-2-Hydroxymethyl-pyrrolidin-1-yl)-4′-methyl-biphenyl-3-carboxylic acid (6-methyl-pyridin-3-ylmethyl)-amide]
32.8 nM	65.4 nM	Cc1ccc(-c2cc(C(=O)N[C@H](C)c3cnc(C)nc3)cc(-c3cccc(F)c3F)c2)nc1 [Compound 36, 2′,3′-Difluoro-5-(5-methyl-pyridin-2-yl)-biphenyl-3-carboxylic acid [(R)-1-(2-methyl-pyrimidin-5-yl)-ethyl]-amide]
18.6 nM	22.2 nM	Cc1ccc(-c2cc(C(=O)N[C@H](C)CN3CCOCC3)cc(-c3cnccc3C#N)c2)c(C#N)c1 [Compound 87, (R)-2′-Cyano-5-(4-cyanopyridin-3-yl)-4′-methyl-N-(1-morpholinopropan-2-yl)biphenyl-3-carboxamide]
